Assay results from US11931335B2, “Enhancing autophagy or increasing longevity by administration of urolithins or precursors thereof” (Amazentis SA, priority 2012, dated 2024).
“Also recorded” adds a separate entry of the source. Where two headings read alike, the source gives them in different places.

Legend:
[1] = test system: C. elegans wild-type Bristol N2; test: Lifespan of wild-type C. elegans; type: in vivo; settings: concentration of 50 µM; exposed from eggs; FIG. 4
Description: C. elegans strains were cultured at 20° C. on nematode growth media (NGM) agar plates seeded with E. coli strain OP50. Strain used was wild-type Bristol N2 provided by the Caenorhabditis Genetics Center (University of Minnesota). All Compounds were dissolved in DMSO. Animals were exposed to compounds from eggs on plates seeded with live OP50 bacteria. Control plates were prepared with the corresponding concentrations of DMSO (0.1%). For lifespan tests, worms were observed using a Nikon SMZ1500 stereomicroscope (Nikon, Melville, NY, USA). […] After 3 days (corresponding to day 0), newly developed 60 to 100 L4 worms were used per condition, scored and transferred to fresh plates every 3 days starting from day 1 (young adult worms). All lifespan experiments were performed at 20° C.
Lifespan assays were performed with (A) wild-type (N2), (B) sir-2.1(ok434) mutant, (C) aak-2(ok524), (D) daf-16(mu86), (E) eat-2(ad465) and (F) daf-2(e1370) mutant strains of C. elegans maintained during their full life on plates supplemented with either 50 μM of urolithin A or with a control treatment and seeded with OP50 bacteria. Control plates without urolithin A contained an equivalent concentration of DMSO. Worm lifespan assays were performed at 20° C.

[2] = test system: C. elegans wild type (N2, Bristol); test: Mobility tracking of C. elegans during aging; type: in vivo; settings: days 1, 3, 5 and 8 of adulthood; 50 μM; FIG. 12
Description: To examine the effect of urolithins on muscle activity during aging, C. elegans mobility was examined over time. Synchronized populations of wild-type nematodes were prepared by standard methods and cultivated at 20° C. on NGM agar containing E. Coli (OP50) with or without test compounds (ellagic acid (EA), urolithins A (UA), and B (UB)). At Day 0, five plates were prepared, each containing 10 young adult worms. Worms were assayed for mobility at different ages, day 1, 3, 5 and 8 of adulthood. The wild type (N2, Bristol) worm strain was employed for these studies.
For C. elegans movement tracking, 45 seconds of video were recorded using a Nikon DS-L2/DS-Fi1 camera and controller setup, attached to both a computer and a standard bright field microscope, tracking an entire plate of 10 worms, with 5 plates per condition. The movement of worms during this time was calculated using an adapted version of the freely-available software Parallel Worm Tracker for MATLAB. The total movement over the 45 second tracking was averaged across all worms for each condition. This experiment was repeated twice with between 40 and 70 worms per condition.

[3] = test system: C. elegans wild-type Bristol N2; settings: Genotype: N2, fed live E. coli (OP50), cited from earlier work
[4] = test system: C. elegans; test: Pharyngeal pumping in C. elegans; type: in vivo; settings: day 14 (aged worms); 50 μM; FIG. 11
Description: To examine the effect of urolithins on muscle function, pharyngeal pumping was examined in C. elegans worms at day 7 and day 14. Worms were observed using a Nikon SMZ1500 stereomicroscope (Nikon, Melville, NY, USA). Ten L4 worms were transferred on plates containing NGM medium with vehicle (DMSO 0.1%, final concentration) or the compound of interest (urolithin A (UA), urolithin B (UB), urolithin C (UC), urolithin D (UD)) dissolved in DMSO (final concentration 50 μM) and seeded with E. coli RNAi clones as indicated. After 3 days (corresponding to day 0), newly developed 60 to 100 L4 worms were used per condition, scored and transferred to fresh plates every 3 days starting from day 1 (young adult worms). Experiments were performed at 20° C.
The pharyngeal pumping rates at day 7 and 14 were measured for 10 worms by transferring single worms to an unseeded plate and scoring for pharyngeal pumping under a dissecting microscope for 30 seconds. The pharyngeal pumping rates were then computed by extrapolating the pumping made by worms during this 30 second period.

[5] = test system: undifferentiated C2C12 mouse myoblasts; test: LC3B flow cytometry in C2C12 myoblasts; type: cell-based; settings: 100 μM, 24 hrs, FIG. 26
Description: To determine the ability of urolithin A to induce autophagy in mouse muscle cells, undifferentiated C2C12 mouse myoblasts were seeded in T25 flasks and incubated overnight. Cells were incubated in 5% CO2 at 37° C. These cells were treated with one of the urolithins-urolithin A (UA), urolithin B (UB), urolithin C (UC) or urolithin D (UD)—dissolved in a 0.1% solution of DMSO for 24 hours. In one experiment UA, UB, UC and UD were dosed at a concentration of 100 μM for C2C12 myoblast treatment. In a separate study, C2C12 myoblasts were incubated at increasing concentrations of UA (10 μM, 50 μM and 100 μM). For each experiment a control culture was treated with 0.1% DMSO for the same period and served as the untreated control. In the final 30 minutes of incubation, lysosome degradation inhibitor was added to the culture. The cells were then washed with phosphate buffer solution and then treated with a 1% solution of trypsin enzyme to remove the adhesive cells from the cell culture dishes. The cells were then treated with EMD Millipore selective permeabilization reagent to permeabilize the cells so as to make the internal cellular proteins accessible to antibody treatment. Cells were then incubated with antibody to LC3B according to kit protocol (EMD Millipore FlowCellect™ Autophagy LC3 Antibody-based Assay Kit (Cat no. FCCH100171)). The cells were then washed and resuspended in the kit assay buffer. The resulting cells were then run through a flow cytometer and LC3B-FITC fluorescence was quantified to measure the level of LC3B in C2C12 cells for the various treatments. When cells undergo autophagy their intracellular levels of LC3-II increase which is detected by this method. This autophagy can be detected by fluorescent antibody labeling of LC3B, which can be measured quantitatively using flow cytometry. An increase in cellular autophagy is reflected by an increasing signal in the histogram of LC3B FITC.

[6] = test system: C. elegans; test: Time-lapse motility of C. elegans; type: in vivo; settings: 50 μM; days 8, 14 and 16; FIG. 13
Description: Briefly, worms were observed using a Nikon SMZ1500 stereomicroscope (Nikon, Melville, NY, USA). […] Experiments were repeated three times.

O=c1oc2c(O)c(O)cc3c(=O)oc4c(O)c(O)cc1c4c23 [Ellagic acid, ellagic acid]
effect on lifespan in C. elegans [1]: no effects
age related mobility decline [2]: no effect

CN(C)C(=N)NC(=N)N [Metformin, N,N-Dimethylimidodicarbonimidic diamide]
Mean Life Extension (%) ([3]; dose 50 μM): 27%

CO[C@H]1C[C@@H]2CC[C@@H](C)[C@@](O)(O2)C(=O)C(=O)N2CCCC[C@H]2C(=O)O[C@H]([C@H](C)C[C@@H]2CC[C@@H](O)[C@H](OC)C2)CC(=O)[C@H](C)/C=C(\C)[C@@H](O)[C@@H](OC)C(=O)[C@H](C)C[C@H](C)/C=C/C=C/C=C/1C [Rapamycin, (3S,6R,7E,9R,10R,12R,14S,15E,17E,19E,21S,23S,26R,27R,34aS)-9,10,12,13,14,21,22,23,24,25,26,27,32,33,34,34a-hexadecahydro-9,27-dihydroxy-3-[(1R)-2-[(1S,3R,4R)-4-hydroxy-3-methoxycyclohexyl]-1-methylethyl]-10,21-dimethoxy-6,8,12,14,20,26-hexamethyl-23,27-epoxy-3H-pyrido[2,1-c][1, 4]-oxaazacyclohentriacontine-1,5,11,28,29(4H,6H,31H)-pentone]
Mean Life Extension (%) ([3]; dose 100 μM): 19%

Oc1ccc(/C=C/c2cc(O)cc(O)c2)cc1 [Resveratrol, 3,5,4′-trihydroxy-trans-stilbene]
Mean Life Extension (%) ([3]; dose 100 μM): 6.2-12.6%
Mean Life Extension (%) ([3]; dose 100 μM, listed as resveratrol): 12.6%

NCCCCNCCCN [Spermidine, spermidine]
Mean Life Extension (%) ([3]; dose 200 μM): 15%

O=c1oc2cc(O)ccc2c2ccccc12 [Urolithin B, urolithin B]
effect on lifespan in C. elegans [1]: extended the lifespan
pharyngeal pumping (muscle function) [4]: decreases the age related decline in muscle activity
age related mobility decline [2]: marked ability to reduce muscle function decline
LC3B signal (shift of the histogram) ([5]; listed as UB): increasing signal of LC3B; also recorded: increase in autophagy
motility (time-lapse traces) [6]: strongest effect

O=c1oc2cc(O)ccc2c2cc(O)c(O)cc12 [Urolithin C, urolithin C]
effect on lifespan in C. elegans [1]: extended the lifespan
LC3B signal (shift of the histogram) ([5]; listed as UC): increasing signal of LC3B; also recorded: increase in autophagy

O=c1oc2c(O)c(O)ccc2c2cc(O)c(O)cc12 [Urolithin D, urolithin D]
effect on lifespan in C. elegans [1]: extended the lifespan
LC3B signal (shift of the histogram) ([5]; listed as UD): increasing signal of LC3B; also recorded: increase in autophagy
